Laboratory results taken from patent US6436975B1, “Pharmaceutical compositions for ulcer” (Nicox S.A., priority 2000, dated 2002).

Key:
[1] = test system: Cells of the human umbilical vein; experiment: Nitric oxide generation by chemiluminiscence, endothelial cells; type: cell-based; conditions: incubation of 100 μM NO-donor, 5 minutes
Description: (§1) Specifically the test relates to the nitric oxide generation from the NO-donors described in the present invention, among which, for instance nitroglicerin, nicorandyl, nitroprussiate, etc., when they are put in the presence of endothelial cells (method a) or platelets (method b)
The incubation medium (physiologic solvent, for example Tyrode) has been then analyzed to determine the capability to generate NO, by:
1) the nitric oxide disclosure by chemiluminiscence;
As regards the chemiluminiscence analysis, an amount equivalent to 100 ul was injected in the reaction chamber of a chemiluminiscence analyzer containing glacial acetic acid and potassium iodide. Nitrites/nitrates present in the medium under these conditions are converted into NO which is then determined after its reaction with ozone, with consequent light generation. As it usually occurs in the devices measuring the chemiluminiscence, the produced luminiscence is directly proportional to the generated NO levels and can be measured by the suitable photomultiplier unit of a chemiluminiscence analyzer.
The photomultiplier converts the incident light into electric voltage, which is then quantitatively recorded. On the basis of a calibration curve, prepared with scalar nitrite concentrations, it was possible to quantitatively determine the generated NO concentration. […]

Washed human platelets = experiment: Nitric oxide generation by chemiluminiscence, platelets; type: cell-based; conditions: incubation of 100 μM NO-donor, 5 minutes
Description: as §1
Washed human platelets, prepared analogously with what described by Radomski et al, (Br.J. Pharmacol. 92, 639-1987), were used. 0.4 ml alicuots were incubated with scalar NO-donor concentrations (1-100 μg/ml) for 5 minutes. The incubation medium (e.g. Tyrode) was then analyzed to determine the capability to generate NO, by determination of nitric oxide bv chemiluminiscence and CGMP, with the modalities described in the previous paragraph, for the analyses carried out on the endothelial cells. As to the determination by chemiluminiscence, also in this case, on the basis of a calibration curve, prepared with scalar nitrite concentrations, it was possible to quantitatively determine the generated NO concentration. For example, after incubation of 100 μM of nicorandyl, an amount equal to 35 μM of NO was generated.

rats = experiment: Anti-ulcer activity, gastric lesions by absolute ethanol; type: in vivo; conditions: oral, 15 minutes before absolute ethanol (1 ml), evaluated one hour later; cimetidine 50 mg/Kg, composition 70 mg/Kg

SMILES | generated NO concentration [1] | generated NO concentration (Washed human platelets) | Gastric Damage (rats)
O=C(NCCO[N+](=O)[O-])c1cccnc1 [nicorandyl, N-[2-(nitroxy)ethyl]-3-pyridine-carboxamide] | about 10 μM | 35 µM | –
CN/C(=N/CCSCc1nc[nH]c1C)NC#N [Cimetidine] | – | – | 100%
